Laboratory results as given in patent publication US9149445B2, “Inhibition of glycerol-3-phosphate acyltransferase (GPAT) and associated enzymes for treatment of viral infections” (THE TRUSTEES OF PRINCETON UNIVERSITY, priority 2009, dated 2015).

How the values were obtained:
[1] = test system: panel of 140 protein kinases; details: cited from earlier work
mTOR = mTOR (Homo sapiens, UniProt P42345); details: selective mTOR inhibitors; cited from earlier work
HCMV = HCMV replication in serum-starved fibroblasts, infectious progeny by TCID50 assay; format: cell-based, human cytomegalovirus; details: multiplicity 0.1 TCID50 units per cell
Protocol: FIG. 2. Inhibition of HCMV Replication by Inhibition of GPAT. Serum-starved fibroblasts were infected with HCMV at a multiplicity of 0.1 TCID50 units per cell. After adsorption for 1 h, cultures were re-fed with serum-free medium containing concentrations of 2.5 μg/ml, 5 μg/ml and 10 μg/ml of FAS 115 or with DMSO, the solvent used to dissolve FAS 115. Medium was assayed at 0, 2, 4, 6, 8, 10 and 12 days after infection and the production of infectious progeny was determined by TCID50 assay on fibroblasts.
Serum-starved fibroblasts were infected with HCMV at a multiplicity of 0.1 TCID50 units per cell. After adsorption for 1 h, cultures were re-fed with serum-free medium containing concentrations of 2.5μ/ml, 5μ/ml and 10μ/ml of FAS 115 or with DMSO, the solvent used to dissolve FAS 115. The medium was assayed at 0, 2, 4, 6, 8, 10 and 12 days after infection and the production of infectious progeny was determined by TCID50 assay on fibroblasts. […] At the highest concentration, production of virus was not observed on day 12 after infection. (FIG. 2).
Cell Lines, Viral Stock. Low passage fibroblasts (passage 6-8) were cultured in a medium containing 10% fetal bovine serum. Bacterial artificial chromosome-derived HCMV AD 169 strain (BADWT) was propagated in human foreskin fibroblasts (HFFs), concentrated via a 20% sorbitol cushion, and resuspended as a stock in serum-free media.

herpes simplex virus-1 = assay: HSV-1 replication in serum-starved fibroblasts, infectious progeny by TCID50 assay; format: cell-based; details: multiplicity 0.01 TCID50 units/cell
Protocol: FIG. 4. Dose-dependent Inhibition of Herpes Simplex Virus-1 Replication by Inhibition of GPAT. Serum-starved fibroblasts were infected with herpes simplex virus-1 at a multiplicity of 0.01 TCID50 units/cell. After adsorption for 1 h, cultures were re-fed with serum-free medium containing the indicated concentrations of FAS 115 or with DMSO, the solvent used to dissolve FAS 115. Medium was harvested at the indicated times after infection and the production of infectious progeny was determined by TCID50 assay on fibroblasts.
Serum-starved fibroblasts were infected with herpes simplex virus-1 at a multiplicity of 0.01 TCID50 units/cell. After adsorption for 1 h, cultures were re-fed with serum-free medium containing concentrations of 2.5μ/ml, 5μ/ml and 10μ/ml of FAS 115 of FAS 115 or with DMSO, the solvent used to dissolve FAS 115. The medium was assayed daily for five days and the production of infectious progeny was determined by TCID50 assay on fibroblasts. […] At higher concentrations, the concentration of infections virus was reduced to 1 TCID50 unit/ml or less after 5 days. (FIG. 4).

GPAT = details: cited from earlier work
human cytomegalovirus = assay: HCMV late protein expression by Western blot in infected fibroblasts; format: cell-based; details: intermediate and high concentrations (5μ/ml and 10μ/ml); 96 hours after infection; multiplicity 3.0 TCID50 units/cell; compared to tubulin and IE-1
Protocol: FIG. 3. Dose-dependent Inhibition of Human Cytomegalovirus Late Protein Expression by Inhibition of GPAT. Serum-starved fibroblasts were infected with human cytomegalovirus at a multiplicity of 3.0 TCID50 units/cell. After adsorption for 1 h, cultures were re-fed with serum-free medium containing the indicated concentrations of FAS 115 or with DMSO, the solvent used to dissolve FAS 115. Cells were harvested at 96 hours after infection and viral protein expression was assessed by Western blot. IE-1 is a viral protein expressed immediately early during infection. pp65 and pp28 are viral proteins expressed late during HCMV infection. Tubulin is a loading control.
Serum-starved fibroblasts were infected with human cytomegalovirus at a multiplicity of 3.0 TCID50 units/cell. After adsorption for 1 h, cultures were re-fed with serum-free medium containing 2.5μ/ml, 5μ/ml and 10μ/ml of FAS 115 or with DMSO, the solvent used to dissolve FAS 115. Cells were harvested at 96 hours after infection and viral protein expression was assessed by Western blot. IE-1 is a viral protein expressed during the immediate-early phase of infection. pp65 and pp28 are viral proteins expressed late during HCMV infection. Tubulin is a loading control. […] (FIG. 3).

Cc1c(C(=O)N2CCOc3ccc(-c4ccc(N)nc4)cc3C2)ccc(S(C)(=O)=O)c1F [XL388]
IC50 [1]: > 3000 nM

COC(=O)Nc1ccc(-c2nc(N3CCOCC3)c3cnn(C4CCN(C(=O)OC)CC4)c3n2)cc1 [WYE354]
IC50 (mTOR): 5 nM

CCCCCCCC[C@@]1(C)SC(=O)C=C1OC(=O)OCC [FAS 115]
production of virus (HCMV; highest concentration (10μ/ml), day 12 after infection): not observed | viral titers reduced (HCMV; lowest FAS 115 concentration (2.5μ/ml), versus DMSO): about an order of magnitude | concentration of infections virus (herpes simplex virus-1; higher concentrations (5μ/ml, 10μ/ml), after 5 days): ≤ 1 TCID50 unit/ml | viral titers lower than in untreated cells (herpes simplex virus-1; lowest FAS 115 concentration (2.5μ/ml)): about an order of magnitude | inhibition of GPAT (GPAT): inhibits GPAT | expression of pp28 (human cytomegalovirus): noticeably reduced | expression of pp65 (human cytomegalovirus): noticeably reduced

CNC(=O)Nc1ccc(-c2nc(N3CC4CCC(C3)O4)c3cnn(C4CCC5(CC4)OCCO5)c3n2)cc1 [WYE-125132]
IC50 (mTOR): 0.19 nM

c1cncc(CN2CCC(n3ncc4c(N5CCOCC5)nc(-c5ccc6[nH]ccc6c5)nc43)CC2)c1 [WAY-600]
IC50 (mTOR): 9 nM
